Experimental data taken from ChEMBL document CHEMBL5360655, “Design, Synthesis, and Biological Evaluation of Novel P2X7 Receptor Antagonists for the Treatment of Septic Acute Kidney Injury” (J Med Chem, 2023).
The source made the active and inactive calls. No cut-off for these calls is given here.

Tests used:
[1] = Tmax in BALB/c mouse at 10 mg/kg, iv measured for 24 hrs by LC-MS/MS analysis; type: ADME, organism-based; conditions: in vivo
[2] = test system: HEK293; assay: Cytotoxicity against human HEK293 cells transfected with mouse P2X7 receptor assessed as effect on cell viability at 1 to 4 uM incubated for 2 hrs by CCK8 assay; type: toxicity, cell-based; conditions: hek293, 2 h, dose 1-4 µM
[3] = Clearance in BALB/c mouse at 10 mg/kg, ip measured for 24 hrs by LC-MS/MS analysis; type: ADME, organism-based; conditions: in vivo
[4] = Intrinsic clearance in mouse liver microsomes; type: ADME, Microsome; conditions: read-out: CLH
[5] = Half life in mouse liver microsomes; type: ADME, Microsome
[6] = Half life in BALB/c mouse at 10 mg/kg, po measured for 24 hrs by LC-MS/MS analysis; type: ADME, organism-based; conditions: in vivo
[7] = biological target: T1, P2X purinoceptor 7 (Homo sapiens, UniProt Q99572); assay: Antagonist activity at human P2X7 receptor expressed in HEK293 cells assessed as inhibition of ATP-induced receptor pore formation by propidium iodide dye uptake based fluorescence analysis; type: cell-based
T1 sequence (Q99572 whole entry): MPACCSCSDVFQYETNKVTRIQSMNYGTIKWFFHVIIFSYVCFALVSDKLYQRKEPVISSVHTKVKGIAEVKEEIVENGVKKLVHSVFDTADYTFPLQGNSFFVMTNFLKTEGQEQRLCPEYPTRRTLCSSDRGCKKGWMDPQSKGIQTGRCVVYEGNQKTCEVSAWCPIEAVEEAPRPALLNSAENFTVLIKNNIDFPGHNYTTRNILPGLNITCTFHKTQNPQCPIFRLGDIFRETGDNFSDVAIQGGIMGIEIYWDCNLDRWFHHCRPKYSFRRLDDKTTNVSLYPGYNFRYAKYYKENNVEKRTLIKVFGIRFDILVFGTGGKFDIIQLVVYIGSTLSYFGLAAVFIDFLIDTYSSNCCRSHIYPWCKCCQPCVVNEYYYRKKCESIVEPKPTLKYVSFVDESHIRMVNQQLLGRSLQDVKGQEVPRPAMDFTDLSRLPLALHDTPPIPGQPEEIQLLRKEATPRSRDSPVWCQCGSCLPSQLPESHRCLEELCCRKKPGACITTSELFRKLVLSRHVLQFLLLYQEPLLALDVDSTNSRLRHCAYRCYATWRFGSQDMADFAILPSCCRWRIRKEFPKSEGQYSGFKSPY

[8] = Tmax in BALB/c mouse at 10 mg/kg, po measured for 24 hrs by LC-MS/MS analysis; type: ADME, organism-based; conditions: in vivo
[9] = Half life in BALB/c mouse at 10 mg/kg, iv measured for 24 hrs by LC-MS/MS analysis; type: ADME, organism-based; conditions: in vivo
[10] = test system: Mus musculus; assay: Reno-protective activity against LPS-induced acute kidney injury C57BL/6J mouse model assessed as decrease in serum […] level at 10 mg/kg, ip administered twice at 30 mins prior to LPS challenge and 8 hrs post-LPS challenge and measured at 16 hrs post-LPS challenge; type: functional, organism-based; conditions: time 16.5 hrs
[11] = AUC(0 to t) in BALB/c mouse at 10 mg/kg, po measured for 24 hrs by LC-MS/MS analysis; type: ADME, organism-based; design: time 24 hrs, dose 10 mg/kg, route po; conditions: in vivo
[12] = Cmax in BALB/c mouse at 10 mg/kg, po measured for 24 hrs by LC-MS/MS analysis; type: ADME, organism-based; design: time 24 hrs, dose 10 mg/kg, route po; conditions: in vivo
[13] = Half life in human liver microsomes; type: ADME, Microsome
[14] = Half life in BALB/c mouse at 10 mg/kg, ip measured for 24 hrs by LC-MS/MS analysis; type: ADME, organism-based; conditions: in vivo
[15] = AUC(0 to t) in BALB/c mouse at 10 mg/kg, iv measured for 24 hrs by LC-MS/MS analysis; type: ADME, organism-based; design: time 24 hrs, dose 10 mg/kg, route iv; conditions: in vivo
[16] = biological target: T2, P2X purinoceptor 7 (Homo sapiens) (UniProt Q99572); assay: Antagonist activity at human P2X7 receptor expressed in HEK293 cells assessed as inhibition of ATP-induced receptor pore formation at 1 uM by propidium iodide dye uptake based fluorescence analysis; type: cell-based; conditions: filed as antagonist
T2 sequence (whole entry): T1 sequence (Q99572 whole entry)

[17] = Cmax in BALB/c mouse at 10 mg/kg, ip measured for 24 hrs by LC-MS/MS analysis; type: ADME, organism-based; design: dose 10 mg/kg, time 24 hrs, route ip; conditions: in vivo
[18] = test system: Mus musculus; assay: Reno-protective activity against LPS-induced acute kidney injury C57BL/6J mouse model assessed as decrease in BUN level at 10 mg/kg, ip administered twice at 30 mins prior to LPS challenge and 8 hrs post-LPS challenge and measured at 16 hrs post-LPS challenge; type: functional, organism-based; conditions: time 16.5 hrs
[19] = biological target: T3, P2X purinoceptor 7 (Mus musculus) (UniProt Q9Z1M0); assay: Antagonist activity at mouse P2X7 receptor expressed in HEK293 cells assessed as inhibition of ATP-induced receptor pore formation at 1 uM by propidium iodide dye uptake based fluorescence analysis; type: cell-based; conditions: filed as antagonist
T3 sequence (whole entry): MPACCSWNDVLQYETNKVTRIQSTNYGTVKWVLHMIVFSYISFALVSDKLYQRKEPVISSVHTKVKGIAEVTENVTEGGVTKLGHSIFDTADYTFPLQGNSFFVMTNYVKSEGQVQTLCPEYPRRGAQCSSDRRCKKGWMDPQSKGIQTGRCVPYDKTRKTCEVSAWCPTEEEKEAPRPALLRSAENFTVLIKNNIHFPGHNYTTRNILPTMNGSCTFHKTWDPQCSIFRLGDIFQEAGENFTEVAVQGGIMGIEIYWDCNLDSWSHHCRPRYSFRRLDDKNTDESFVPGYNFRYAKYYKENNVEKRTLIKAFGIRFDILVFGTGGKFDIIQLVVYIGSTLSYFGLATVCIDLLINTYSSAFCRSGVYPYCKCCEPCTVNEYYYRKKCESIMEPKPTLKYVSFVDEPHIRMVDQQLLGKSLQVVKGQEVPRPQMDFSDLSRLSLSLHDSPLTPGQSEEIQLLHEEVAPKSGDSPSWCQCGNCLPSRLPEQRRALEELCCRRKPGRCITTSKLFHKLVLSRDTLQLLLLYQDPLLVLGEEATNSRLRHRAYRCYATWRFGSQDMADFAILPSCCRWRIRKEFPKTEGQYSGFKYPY

[20] = biological target: T2, P2X purinoceptor 7 (Homo sapiens); assay: Antagonist activity at human P2X7 receptor expressed in HEK293 cells assessed as inhibition of ATP-induced receptor pore formation at 200 nM by propidium iodide dye uptake based fluorescence analysis; type: cell-based
[21] = AUC(0 to t) in BALB/c mouse at 10 mg/kg, ip measured for 24 hrs by LC-MS/MS analysis; type: ADME, organism-based; design: dose 10 mg/kg, time 24 hrs, route ip; conditions: in vivo
[22] = Intrinsic clearance in human liver microsomes; type: ADME, Microsome; conditions: read-out: CLH
[23] = Cmax in BALB/c mouse at 10 mg/kg, iv measured for 24 hrs by LC-MS/MS analysis; type: ADME, organism-based; design: time 24 hrs, dose 10 mg/kg, route iv; conditions: in vivo
[24] = test system: HEK293; assay: Cytotoxicity against human HEK293 cells transfected with human P2X7 receptor assessed as effect on cell viability at 1 to 4 uM incubated for 2 hrs by CCK8 assay; type: toxicity, cell-based; conditions: hek293, 2 h, dose 1-4 µM
[25] = biological target: T1, P2X purinoceptor 7; assay: Antagonist activity at P2X7 receptor in human THP-1 cells assessed as inhibition of ATP-induced IL-1beta secretion pretreated with LPS for 3 hrs followed by incubation with compound for 40 mins followed by treatment with ATP for 1 hr by ELISA; type: cell-based
[26] = biological target: T4, P2X purinoceptor 7 (Mus musculus, UniProt Q9Z1M0); assay: Antagonist activity at mouse P2X7 receptor expressed in HEK293 cells assessed as inhibition of ATP-induced receptor pore formation by propidium iodide dye uptake based fluorescence analysis; type: cell-based
T4 sequence (Q9Z1M0 whole entry): T3 sequence (whole entry)

[27] = Clearance in BALB/c mouse at 10 mg/kg, iv measured for 24 hrs by LC-MS/MS analysis; type: ADME, organism-based; conditions: in vivo
[28] = Clearance in BALB/c mouse at 10 mg/kg, po measured for 24 hrs by LC-MS/MS analysis; type: ADME, organism-based; conditions: in vivo
[29] = biological target: T3, P2X purinoceptor 7 (Mus musculus); assay: Antagonist activity at mouse P2X7 receptor expressed in HEK293 cells assessed as inhibition of ATP-induced receptor pore formation at 200 nM by propidium iodide dye uptake based fluorescence analysis; type: cell-based
[30] = Oral bioavailability in BALB/c mouse at 10 mg/kg measured for 24 hrs by LC-MS/MS analysis; type: ADME, organism-based; conditions: in vivo
[31] = test system: THP-1; assay: Cytotoxicity against human THP-1 cells assessed as effect on cell viability at 1 to 4 uM incubated for 2 hrs by CCK8 assay; type: toxicity, cell-based; conditions: thp-1, 2 h, dose 1-4 µM
[32] = Tmax in BALB/c mouse at 10 mg/kg, ip measured for 24 hrs by LC-MS/MS analysis; type: ADME, organism-based; conditions: in vivo
[33] = biological target: T2, P2X purinoceptor 7 (Homo sapiens); assay: Antagonist activity at human P2X7 receptor expressed in HEK293 cells assessed as inhibition of ATP-induced receptor pore formation at 10 uM by propidium iodide dye uptake based fluorescence analysis; type: cell-based; conditions: filed as antagonist
[34] = biological target: T3, P2X purinoceptor 7 (Mus musculus); assay: Antagonist activity at mouse P2X7 receptor expressed in HEK293 cells assessed as inhibition of ATP-induced receptor pore formation at 10 uM by propidium iodide dye uptake based fluorescence analysis; type: cell-based; conditions: filed as antagonist

Structure (SMILES)	Tmax [1] [min]	CLint scaled [4] [mL/min/kg]	half-life [5] [min]	half-life [6] [min]	IC50 [7] [nM]	Tmax [8] [h]	half-life [9] [min]	Activity [10]	AUC(0-t) at 24 h [11] [ng·h/mL]	Cmax [12] [ng/mL]	half-life [13] [min]	AUC(0-t) at 24 h [15] [ng·h/mL]	inhibition [16] [%]	Activity [18]	inhibition [19] [%]	inhibition ([20]; filed as antagonist) [%]	CLint scaled [22] [mL/min/kg]	Cmax [23] [ng/mL]	IC50 [26] [nM]	inhibition ([29]; filed as antagonist) [%]	other results
CS(=O)(=O)c1ccc(-c2ncc(C(=O)NCc3cn(-c4cc(Br)ccn4)nn3)s2)cc1	83.4	< 12	> 120	160	166	2	472	Active	7140	1010	> 120	40900	100	Active	114	56.9	< 12	3410	12.2	114	Activity [2]: Non-Toxic; CL/F [3]: 6.83 mL/min/kg; half-life [14]: 490 min; Cmax [17]: 3660 ng/mL; AUC(0-t) at 24 h [21]: 24400 ng·h/mL; Activity [24]: Non-Toxic; IC50 [25]: 289 nM; clearance [27]: 3.67 mL/min/kg; CL/F [28]: 26.3 mL/min/kg; bioavailability [30]: 17.5%; Activity [31]: Non-Toxic; Tmax [32]: 4 h
CS(=O)(=O)c1ccc(-c2ncc(C(=O)NCc3cn(-c4cc(Cl)ccn4)nn3)s2)cc1	4.8	< 12	> 120	126	297	2	296	Active	29100	6500	> 120	77900	53.6	Active	100	–	< 12	25800	26.9	101	Activity [2]: Non-Toxic; CL/F [3]: 13.5 mL/min/kg; half-life [14]: 239 min; Cmax [17]: 1470 ng/mL; inhibition [20]: 38.2%; AUC(0-t) at 24 h [21]: 12000 ng·h/mL; Activity [24]: Non-Toxic; IC50 [25]: 635 nM; clearance [27]: 2 mL/min/kg; CL/F [28]: 5.83 mL/min/kg; bioavailability [30]: 37.3%; Activity [31]: Non-Toxic; Tmax [32]: 4.67 h
CS(=O)(=O)Nc1cccc(-c2ccc(Cl)c(C(=O)NCc3cn(-c4cc(Cl)ccn4)nn3)c2)c1	–	65.4	83.5	–	91.4	–	–	–	–	–	56.8	–	76.9	–	74.7	–	30.6	–	1860	–	inhibition [20]: 30.8%; inhibition [29]: 32.8%
O=C(NCc1cn(-c2cc(Cl)ccn2)nn1)c1cnc(-c2cccc(NS(=O)(=O)C3CC3)c2)s1	–	< 12	> 120	–	656	–	–	–	–	–	> 120	–	62.5	–	83.9	40	< 12	–	69.9	68.3	–
O=C(NCC1(N2CCN(c3ccccc3)CC2)CCOCC1)c1cccnc1Sc1ccccc1	4.8	88.2	61.9	48	–	0.08	46.2	Active	155	270	42.5	310	95.2	Active	92	93.8	40.9	516	–	87.3	inhibition [33]: 92%; inhibition [34]: 89%; IC50 [25]: < 30 nM; clearance [27]: 538 mL/min/kg; CL/F [28]: 1080 mL/min/kg; bioavailability [30]: 49.9%
